± gives the expanded uncertainty stated by the source.
Legend:
[1] = molar enthalpy of vaporization or sublimation; conditions: 298.15 K; Crystal; Static calorimetry
[2] = 298.15 K, Static calorimetry; for molar enthalpy of sublimation: Crystal

| SMILES | molar enthalpy [1] [kcal/mol] | molar enthalpy of sublimation [2] [kcal/mol] | also measured |
| --- | --- | --- | --- |
| Oc1cccc(F)c1F [2,3-Difluorophenol] | 16.3 ± 0.717 |  |  |
| Oc1ccc(F)cc1F [2,4-Difluorophenol] |  |  | molar enthalpy of vaporization ([2]; Liquid): 14.1 ± 0.43 kcal/mol |
| Oc1cc(F)ccc1F [2,5-Difluorophenol] | 16.3 ± 0.669 |  |  |
| Oc1c(F)cccc1F [2,6-difluorophenol] | 18.6 ± 0.908 |  |  |
| Oc1ccc(F)c(F)c1 [3,4-Difluorophenol] |  | 17.4 ± 0.717 |  |
| Oc1cc(F)cc(F)c1 [3,5-Difluorophenol] |  | 17.4 ± 1.05 |  |

Reference: the NIST ThermoML archive (doi:10.1016/j.jct.2009.07.011)
